In brackets after ≈: the same amount, converted by molar mass. Where a SMILES comes first, the peptide text is derived from it.
Legend:
Type in all cases: cell-based
[1] = system: Salmonella enterica serovar Typhimurium ATCC SL1344; conditions: ATCC SL1344, 1 h
[2] = system: Salmonella enterica serovar Enteritidis MH91989; conditions: serovar Enteritidis MH91989, 1 h
[3] = system: E. coli J2210; conditions: J2210, 1 h
[4] = system: E. coli JJ2489; conditions: JJ2489, 1 h
[5] = system: E. coli JW0013; conditions: JW0013, 1 h
[6] = system: E. coli FVEC 964; conditions: FVEC 964, 1 h
[7] = system: E. coli PUTI 379; conditions: PUTI 379, 1 h
[8] = system: Salmonella enterica serovar Tennessee; conditions: 1 h
[9] = system: Salmonella Infantis #129 B; conditions: 1 h
[10] = system: Salmonella enterica serovar Newport; conditions: 1 h
[11] = system: E. coli FVEC 638; conditions: FVEC 638, 1 h
[12] = system: A431 human epidermoid carcinoma cells; experiment: Cytotoxicity assay; conditions: 10 μmol/L peptide, 24 h, MTT assay, duplicate, normalized to PBS
[13] = system: MDA-MB-231 human breast adenocarcinoma cells; experiment: Cytotoxicity assay; conditions: 10 μmol/L peptide, 24 h, MTT assay, duplicate, normalized to PBS

Row | Structure (SMILES) | MIC [1] | MIC [2] | MIC [3] | MIC [4] | MIC [5] | MIC [6] | MIC [7] | MIC [8] | MIC [9] | MIC [10] | MIC [11] | toxicity to A431 cells [12] | toxicity towards MDA-MB-231 [13]
1 | CC[C@H](C)[C@H](NC(=O)[C@H](Cc1ccc(O)cc1)NC(=O)[C@@H](NC(=O)[C@@H]1CCCN1C(=O)[C@H](CCCCN)NC(=O)[C@H](CC(N)=O)NC(=O)[C@H](CC(N)=O)NC(=O)CN)C(C)C)C(=O)N1CCC[C@H]1C(=O)N[C@@H](CCC(N)=O)C(=O)N1CCC[C@H]1C(=O)N[C@@H](CCCNC(=N)N)C(=O)N1CCC[C@H]1C(=O)N1CCC[C@H]1C(=O)N[C@@H](CCCNC(=N)N)C(=O)N1CCC[C@H]1C(=O)N[C@@H](CCCNC(=N)N)C(=O)N[C@@H](CC(C)C)C(=O)O [Api_R4K/H15R] (H-GNNKPVYIPQPRPPRPRL-OH) | 0.126 ± 0.052 µM (≈ 0.265 µg/mL) | 0.067 ± 0.033 µM (≈ 0.141 µg/mL) | 0.133 ± 0.061 µM (≈ 0.279 µg/mL) | 0.067 ± 0.033 µM (≈ 0.141 µg/mL) | 0.048 ± 0.011 µM (≈ 0.101 µg/mL) |  |  |  |  |  |  |  | 
2 | CC(C)C[C@H](NC(=O)[C@H](CCCNC(=N)N)NC(=O)[C@@H]1CCCN1C(=O)[C@H](Cc1c[nH]cn1)NC(=O)[C@@H]1CCCN1C(=O)[C@@H]1CCCN1C(=O)[C@H](CCCNC(=N)N)NC(=O)[C@@H]1CCCN1C(=O)[C@H](CCC(N)=O)NC(=O)[C@@H]1CCCN1C(=O)[C@H](CCCCN)NC(=O)[C@H](Cc1ccc(O)cc1)NC(=O)[C@@H](NC(=O)[C@@H]1CCCN1C(=O)[C@H](CCCCN)NC(=O)[C@H](CC(N)=O)NC(=O)[C@H](CC(N)=O)NC(=O)CN)C(C)C)C(=O)O [Api_R4K/I8K] (H-GNNKPVYKPQPRPPHPRL-OH) | 0.034 ± 0.017 µM (≈ 0.0712 µg/mL) | 0.031 ± 0.014 µM (≈ 0.065 µg/mL) | 0.034 ± 0.017 µM (≈ 0.0712 µg/mL) | 0.031 ± 0.014 µM (≈ 0.065 µg/mL) | 0.012 ± 0.003 µM (≈ 0.0251 µg/mL) | 0.048 ± 0.011 µM (≈ 0.101 µg/mL) | 0.048 ± 0.011 µM (≈ 0.101 µg/mL) | 0.024 ± 0.006 µM (≈ 0.0503 µg/mL) | 0.024 ± 0.006 µM (≈ 0.0503 µg/mL) | 0.024 ± 0.006 µM (≈ 0.0503 µg/mL) | 0.048 ± 0.011 µM (≈ 0.101 µg/mL) |  | 
3 | CC(C)C[C@H](NC(=O)[C@H](CCCNC(=N)N)NC(=O)[C@@H]1CCCN1C(=O)[C@H](Cc1c[nH]cn1)NC(=O)[C@@H]1CCCN1C(=O)[C@@H]1CCCN1C(=O)[C@H](CCCNC(=N)N)NC(=O)[C@@H]1CCCN1C(=O)[C@H](CCC(N)=O)NC(=O)[C@@H]1CCCN1C(=O)[C@H](CCCNC(=N)N)NC(=O)[C@H](Cc1ccc(O)cc1)NC(=O)[C@@H](NC(=O)[C@@H]1CCCN1C(=O)[C@H](CCCCN)NC(=O)[C@H](CC(N)=O)NC(=O)[C@H](CC(N)=O)NC(=O)CN)C(C)C)C(=O)O [Api_R4K/I8R] (H-GNNKPVYRPQPRPPHPRL-OH) | 0.034 ± 0.017 µM (≈ 0.0722 µg/mL) | 0.031 ± 0.014 µM (≈ 0.0658 µg/mL) | 0.034 ± 0.017 µM (≈ 0.0722 µg/mL) | 0.034 ± 0.017 µM (≈ 0.0722 µg/mL) | 0.012 ± 0.003 µM (≈ 0.0255 µg/mL) | 0.048 ± 0.011 µM (≈ 0.102 µg/mL) | 0.048 ± 0.011 µM (≈ 0.102 µg/mL) | 0.024 ± 0.006 µM (≈ 0.051 µg/mL) | 0.024 ± 0.006 µM (≈ 0.051 µg/mL) | 0.017 ± 0.009 µM (≈ 0.0361 µg/mL) | 0.048 ± 0.011 µM (≈ 0.102 µg/mL) |  | 
4 | CC[C@H](C)[C@H](NC(=O)[C@H](Cc1ccc(O)cc1)NC(=O)[C@@H](NC(=O)[C@@H]1CCCN1C(=O)[C@H](CCCNC(=N)N)NC(=O)[C@H](CC(N)=O)NC(=O)[C@H](CC(N)=O)NC(=O)CN)C(C)C)C(=O)N1CCC[C@H]1C(=O)N[C@@H](CCC(N)=O)C(=O)N1CCC[C@H]1C(=O)N[C@@H](CCCNC(=N)N)C(=O)N1CCC[C@H]1C(=O)N1CCC[C@H]1C(=O)N[C@@H](Cc1c[nH]cn1)C(=O)N1CCC[C@H]1C(=O)N[C@@H](CCCNC(=N)N)C(=O)N[C@@H](CC(C)C)C(=O)O [Api_WT, reference compound] (H-GNNRPVYIPQPRPPHPRL-OH) | 0.048 ± 0.011 µM (≈ 0.101 µg/mL) | 0.048 ± 0.011 µM (≈ 0.101 µg/mL) | 0.048 ± 0.011 µM (≈ 0.101 µg/mL) | 0.031 ± 0.014 µM (≈ 0.0654 µg/mL) | 0.024 ± 0.006 µM (≈ 0.0506 µg/mL) | 0.048 ± 0.011 µM (≈ 0.101 µg/mL) | 0.048 ± 0.011 µM (≈ 0.101 µg/mL) | 0.048 ± 0.011 µM (≈ 0.101 µg/mL) | 0.048 ± 0.011 µM (≈ 0.101 µg/mL) | 0.031 ± 0.014 µM (≈ 0.0654 µg/mL) | 0.048 ± 0.011 µM (≈ 0.101 µg/mL) |  | 
5 | CC[C@H](C)[C@H](NC(=O)[C@H](CCCNC(=N)N)NC(=O)[C@@H](N)CCCNC(=N)N)C(=O)N[C@@H](CCCNC(=N)N)C(=O)N[C@@H](CCCCN)C(=O)N[C@@H](CCCNC(=N)N)C(=O)N1CCC[C@H]1C(=O)N1CCC[C@H]1C(=O)N[C@@H](CCCNC(=N)N)C(=O)N[C@@H](CC(C)C)C(=O)N1CCC[C@H]1C(=O)N[C@@H](CCCNC(=N)N)C(=O)N1CCC[C@H]1C(=O)N[C@@H](CCCNC(=N)N)C(=O)N1CCC[C@H]1C(=O)N[C@@H](CCCCN)C(=O)O [Bac_P5K/R16K] (H-RRIRKRPPRLPRPRPK-OH) | 0.120 ± 0.028 µM (≈ 0.25 µg/mL) | 0.120 ± 0.028 µM (≈ 0.25 µg/mL) | 0.157 ± 0.054 µM (≈ 0.326 µg/mL) | 0.120 ± 0.028 µM (≈ 0.25 µg/mL) | 0.060 ± 0.014 µM (≈ 0.125 µg/mL) |  |  |  |  |  |  |  | 
6 | CC[C@H](C)[C@H](NC(=O)[C@H](CCCNC(=N)N)NC(=O)[C@@H](N)CCCNC(=N)N)C(=O)N[C@@H](CCCCN)C(=O)N[C@@H](CCCCN)C(=O)N[C@@H](CCCNC(=N)N)C(=O)N1CCC[C@H]1C(=O)N1CCC[C@H]1C(=O)N[C@@H](CCCNC(=N)N)C(=O)N[C@@H](CC(C)C)C(=O)N1CCC[C@H]1C(=O)N[C@@H](CCCNC(=N)N)C(=O)N1CCC[C@H]1C(=O)N[C@@H](CCCNC(=N)N)C(=O)N1CCC[C@H]1C(=O)N[C@@H](CCCCN)C(=O)O [Bac_R4K/P5K/R16K] (H-RRIKKRPPRLPRPRPK-OH) | 0.120 ± 0.028 µM (≈ 0.246 µg/mL) | 0.167 ± 0.061 µM (≈ 0.343 µg/mL) | 0.167 ± 0.061 µM (≈ 0.343 µg/mL) | 0.120 ± 0.028 µM (≈ 0.246 µg/mL) | 0.060 ± 0.014 µM (≈ 0.123 µg/mL) |  |  |  |  |  |  |  | 
7 | CC[C@H](C)[C@H](NC(=O)[C@H](CCCNC(=N)N)NC(=O)[C@@H](N)CCCNC(=N)N)C(=O)N[C@@H](CCCCN)C(=O)N[C@@H](CCCCN)C(=O)N[C@@H](CCCNC(=N)N)C(=O)N1CCC[C@H]1C(=O)N1CCC[C@H]1C(=O)N[C@@H](CCCNC(=N)N)C(=O)N[C@@H](CC(C)C)C(=O)N1CCC[C@H]1C(=O)N[C@@H](CCCNC(=N)N)C(=O)N1CCC[C@H]1C(=O)N[C@@H](CCCNC(=N)N)C(=O)N1CCC[C@H]1C(=O)N[C@@H](CCCNC(=N)N)C(=O)O [Bac_R4K/P5K] (H-RRIKKRPPRLPRPRPR-OH) | 0.120 ± 0.028 µM (≈ 0.25 µg/mL) | 0.120 ± 0.028 µM (≈ 0.25 µg/mL) | 0.157 ± 0.054 µM (≈ 0.326 µg/mL) | 0.120 ± 0.028 µM (≈ 0.25 µg/mL) | 0.060 ± 0.014 µM (≈ 0.125 µg/mL) |  |  |  |  |  |  |  | 
8 | CC[C@H](C)[C@H](NC(=O)[C@H](CCCNC(=N)N)NC(=O)[C@@H](N)CCCNC(=N)N)C(=O)N[C@@H](CCCCN)C(=O)N1CCC[C@H]1C(=O)N[C@@H](CCCNC(=N)N)C(=O)N1CCC[C@H]1C(=O)N1CCC[C@H]1C(=O)N[C@@H](CCCNC(=N)N)C(=O)N[C@@H](CC(C)C)C(=O)N1CCC[C@H]1C(=O)N[C@@H](CCCNC(=N)N)C(=O)N1CCC[C@H]1C(=O)N[C@@H](CCCNC(=N)N)C(=O)N1CCC[C@H]1C(=O)N[C@@H](CCCCN)C(=O)O [Bac_R4K/R16K] (H-RRIKPRPPRLPRPRPK-OH) | 0.120 ± 0.028 µM (≈ 0.242 µg/mL) | 0.157 ± 0.054 µM (≈ 0.317 µg/mL) | 0.120 ± 0.028 µM (≈ 0.242 µg/mL) | 0.120 ± 0.028 µM (≈ 0.242 µg/mL) | 0.060 ± 0.014 µM (≈ 0.121 µg/mL) |  |  |  |  |  |  |  | 
9 | CC[C@H](C)[C@H](NC(=O)[C@@H]1CCCN1C(=O)[C@H](CCCCN)NC(=O)[C@@H]1CCCN1C(=O)[C@@H]1CCCN1C(=O)[C@@H](NC(=O)[C@@H]1CCCN1C(=O)[C@H](CCCNC(=N)N)NC(=O)[C@@H]1CCCN1C(=O)[C@H](CCCNC(=N)N)NC(=O)[C@H](Cc1ccc(O)cc1)NC(=O)[C@H](CO)NC(=O)CNC(=O)[C@H](CCCCN)NC(=O)[C@H](CC(=O)O)NC(=O)[C@@H](N)C(C)C)[C@@H](C)O)C(=O)N[C@@H](Cc1ccc(O)cc1)C(=O)N[C@@H](CC(N)=O)C(=O)N[C@@H](CCCNC(=N)N)C(=O)N[C@@H](CC(N)=O)C(=O)O [Pyr_L7R/R14K] (H-VDKGSYRPRPTPPKPIYNRN-OH) |  |  |  |  |  |  |  |  |  |  |  | no toxicity | None of these PrAMPs exhibited any toxicity
10 | CC[C@H](C)[C@H](NC(=O)[C@@H]1CCCN1C(=O)[C@H](CCCNC(=N)N)NC(=O)[C@@H]1CCCN1C(=O)[C@@H]1CCCN1C(=O)[C@@H](NC(=O)[C@@H]1CCCN1C(=O)[C@H](CCCNC(=N)N)NC(=O)[C@@H]1CCCN1C(=O)[C@H](CC(C)C)NC(=O)[C@H](Cc1ccc(O)cc1)NC(=O)[C@H](CO)NC(=O)CNC(=O)[C@H](CCCCN)NC(=O)[C@H](CC(=O)O)NC(=O)[C@@H](N)C(C)C)[C@@H](C)O)C(=O)N[C@@H](Cc1ccc(O)cc1)C(=O)N[C@@H](CC(N)=O)C(=O)N[C@@H](CCCNC(=N)N)C(=O)N[C@@H](CC(N)=O)C(=O)O [Pyr_WT, reference compound] (H-VDKGSYLPRPTPPRPIYNRN-OH) |  |  |  |  |  |  |  |  |  |  |  | no toxicity | None of these PrAMPs exhibited any toxicity

Source: PMC6726534 (Biotechnology and bioengineering, 2019)
